Laboratory results from ChEMBL document CHEMBL1151399, “Identification of terpenoids from the leaves of Piptocarpha paradoxa and their biological activities” (J Nat Prod, 1982).
The source made the active and inactive calls. The calls are words filed in the database; no cut-off is given here.

Experiments:
Type in all cases: functional, organism-based
Staphylococcus aureus = assay: Antimicrobial activity against Staphylococcus aureus Rosenbach 1884 by Kirby and Baur method
Providencia rettgeri = assay: Antimicrobial activity against Proteus rettgeri Hadley 1918 by Kirby and Baur method
Salmonella typhi = assay: Antimicrobial activity against Salmonella typhi Zopf 1884 by Kirby and Baur method; settings: Salmonella enterica subsp. enterica serovar Typhi
Escherichia coli = assay: Antimicrobial activity against Escherichia coli Migula 1895 by Kirby and Baur method
Kocuria rosea = assay: Antimicrobial activity against Micrococcus roseus Flugge 1886 by Kirby and Baur method
Klebsiella aerogenes = assay: Antimicrobial activity against Enterobacter aerogenes Kruse 1896 by Kirby and Baur method
Candida = assay: Antimicrobial activity against Candida sp. Berkhout by Kirby and Baur method
Streptococcus sp. = assay: Antimicrobial activity against Streptococcus sp. Rosenbach 1884 by Kirby and Baur method

For `C=C1CCC2CC1C(C)(C)CC(O)/C=C\2C` (stereo not drawn), the Activity (Staphylococcus aureus) was “Active”, the Activity (Providencia rettgeri) was “inactive” and the Activity (Salmonella typhi) was “inactive”. The Activity (Escherichia coli) was “inactive”, the Activity (Kocuria rosea) was “inactive” and the Activity (Klebsiella aerogenes) was “inactive”. The Activity (Candida) was “inactive” and the Activity (Streptococcus sp.) was “inactive”.
